Values of other authors, collected in patent US8518458B2, “Tea-derived compositions and methods of using same for cardiovascular health” (Immune Guard, LLC, priority 2006, dated 2013).

Conditions: spontaneously hypertensive rats

CCNC(=O)CC[C@H](N)C(=O)O [L-theanine, γ-glutamylethylamide]
effect on blood pressure: reduces blood pressure
